Patent publication US20240255419A1, “MOLECULAR PROBES FOR MAPPING BIOLOGICAL ACTIVITY” (Trustees of Boston University, priority 2023, published 2024)
One block for each compound: values may come before it.

Assays:
ATP synthetase = assay: cellular uptake mechanism, NBD fluorescence of NBD-Phos-CN(S); type: cell-based; conditions: 5 μM inhibitor, cells with NBD-Phos-CN(S)
From the text: Considering the high sensitivity and resistance to photobleaching, we conducted real-time monitoring of dephosphorylation reaction in cells by MIP imaging as Phos-CN(S) is introduced to the cells. […] The Nanoparticles formed by the amphiphilic nitrile chameleons may escape from endosomes through endosomal membrane disruption or perforation. The variation in phosphatase activity patterns at different time points is attributed to the dynamic movements of cellular structures within live cells. As previously discussed, the nanofilaments intertwine with cellular structures, causing the nanofilaments to move along with these structures. Furthermore, we utilized NBD-Phos-CN(S) to study the cellular uptake mechanism of nitrile chameleons because NBD fluorescence cannot distinguish between substrate and product.

[1] = tested on: alkaline phosphatase (ALP); conditions: standard substrate, identical conditions
caspase-3 (active) = molecular target: T1, caspase-3 (active) (Homo sapiens, UniProt P42574); assay: enzymatic conversion efficiency by caspase-3 (active), time-course of product formation; type: biochemical; conditions: standard substrate, identical conditions
T1 sequence (P42574 29-175 limits assumed): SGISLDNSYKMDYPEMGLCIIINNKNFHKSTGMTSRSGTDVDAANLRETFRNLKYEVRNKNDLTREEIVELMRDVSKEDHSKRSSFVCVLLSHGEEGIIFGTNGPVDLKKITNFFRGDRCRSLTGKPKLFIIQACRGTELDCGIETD
T1 sequence (P42574 176-277 limits assumed): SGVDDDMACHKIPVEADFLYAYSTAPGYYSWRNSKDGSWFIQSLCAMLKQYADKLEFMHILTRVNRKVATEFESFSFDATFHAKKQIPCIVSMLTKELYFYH

SJSA-1 cells = assay: induction of apoptosis for activating caspase-3/7; type: cell-based
From the text: Other than phosphatase, we profiled caspase-3/7 activity in live cancer cells.

Compound: CC[C@H]1/C=C/C=C/C[C@@H](C)[C@H](O)[C@@](C)(O)C(=O)[C@@H](C)[C@H](O)[C@@H](C)C(=O)[C@@H](C)[C@H](O)[C@@H](C)/C=C/C(=O)O[C@@H]2[C@H](C)[C@H](CC1)O[C@]1(CC[C@H](C)[C@H](C[C@@H](C)O)O1)[C@H]2C [oligomycin]
NBD fluorescence inside the cells (ATP synthetase): significantly reduced

Compound: O=[N+]([O-])c1ccc(OP(=O)(O)O)cc1 [P-nitrophenyl phosphate]
initial speed (v0) [1]: 0.53 nmol/min

initial speed (v0) (caspase-3 (active)): 0.33 nmol/min
Compound: Ac-DEVD-pNA

Compound: COc1cccc2c1C(=O)c1c(O)c3c(c(O)c1C2=O)C[C@@](O)(C(=O)CO)C[C@@H]3O[C@H]1C[C@H](N)[C@H](O)[C@H](C)O1 [Doxorubicin]
apoptosis induction (SJSA-1 cells): efficiently induces apoptosis
